Literature values in US7378519B2, “Adduct of topiramate and tramadol hydrochloride and uses thereof” (Cilag GmbH International, priority 2002, dated 2008).
Where a name gives a salt, the structure may show the parent alone.

System: Chung model of post-nerve constriction injury
Conditions: each drug alone, as the dose is escalated

Compound | MPE (Maximum Possible Effect) reached
CC1(C)O[C@@H]2[C@@H](CO[C@@]3(COS(N)(=O)=O)OC(C)(C)O[C@@H]23)O1 [topiramate, 2,3:4,5-bis-O-(1-methylethylidene)-β-D-fructopyranose sulfamate] | 100 % MPE
COc1cccc(C2(O)CCCCC2CN(C)C)c1 (single isomer, unassigned) [tramadol hydrochloride, (1R,2R or 1S,2S)-2-[(dimethylamino)methyl]-1-(3-methoxyphenyl)-cyclohexan-1-ol] | 100 % MPE
